“And” between values parts separate entries of the source, which are not always exact repeats. Equal entries are not always repeated.
Test system: Scottish men with hypercholesterolemia (WOSCOPS)
Experiment: WOSCOPS nested case-control: coronary events under pravastatin vs placebo by genotype (Tables 11, 13, 15)
Assay type: in vivo, human
Details: for Pravastatin Patients (%) / Pravastatin Patients n/total: WM
Description: Additionally, genetic markers identified as associated with acute coronary events or response to statin treatment for the prevention of coronary events in the CARE samples were also genotyped in a second sample set, the West of Scotland Coronary Prevention Study (WOSCOPS) sample set. […] Participants in the WOSCOPS study were 45-64 years of age and followed for an average of 4.9 years for coronary events. […] Controls were 1160 age and smoking status-matched unaffected patients. All individuals included in the study had signed a written informed consent form and the study protocol was approved by IRB s. DNA was extracted and genotyped as described above.
The data presented in Table 8 based on an association of genotypes with pravastatin efficacy of the CARE samples were further analyzed and presented in Table 13. The further analysis was performed to align the data obtained from the analysis of the CARE samples, which was a prospective study, to the analysis of the WOSCOP samples, which was a case/control study. Table 13 also presents an analysis of the association of genotypes with pravastatin efficacy in the WOSCOPs samples. Relative to the analysis performed on the data presented in Table 8, there are two significant differences to determine if the SNP influenced pravastatin efficacy. Data obtained from the CARE samples were separated by study design into two groups, those in the prospective study design group and those in the case/control study design group. The original care study contained 16 protocol defined cardiovascular disease defined endpoints and 150 other phenotypes. […] The control groups used to compare the data were also divided into two groups, the “all possible” control group and the “cleaner” control group. […] Because the participants in the WOSCOPs trial were all white males, only data obtained from white males in the CARE study were analysed. […] The data from the case/control cohorts were analysed using conditional logistic regression (as opposed to logistic regression used for the original anaylsis).
The anaylsis was refined as described for both Tables 13 and 14.

[1] = CAPN2 hCV781558, WOSCOPS (W) Case/Control, F&NF MI, listed as Pravastatin
[2] = CAPN2 hCV781558, WOSCOPS, Case/Control, F MI/SD/NF MI, listed as Pravastatin
[3] = CCL11 hCV7449808, WOSCOPS (W) Case/Control, F&NF MI
[4] = CCL11 hCV7449808, WOSCOPS, Case/Control, F MI/SD/NF MI
[5] = COL6A2 hCV2811372, WOSCOPS, Case/Control, F MI/SD/NF MI
[6] = COL6A2 hCV2811372, WOSCOPS, Case/Control, F MI/SD/NF MI, listed as Pravastatin
[7] = DDEF1 hCV7686234, WOSCOPS (W) Case/Control, F&NF MI
[8] = FGB hCV7429784, WOSCOPS, Case/Control, F MI/SD/NF MI
[9] = GAPD hCV8921288, WOSCOPS (W) Case/Control, F&NF MI
[10] = GAPD hCV8921288, WOSCOPS, Case/Control, F MI/SD/NF MI
[11] = HRC hCV11506744, 0 Rare Alleles, WOSCOPS Case/Control, F&NF MI, All Possible controls
[12] = HRC hCV11506744, 0 Rare Alleles, WOSCOPS Case/Control, F&NF MI, Cleaner controls
[13] = HRC hCV11506744, 1 Rare Allele, WOSCOPS Case/Control, F&NF MI, All Possible controls
[14] = HRC hCV11506744, 1 Rare Allele, WOSCOPS Case/Control, F&NF MI, Cleaner controls
[15] = HRC hCV11506744, WOSCOPS Case/Control, F&NF MI
[16] = HRC hCV11506744, WOSCOPS, Case/Control, F MI/SD/NF MI, listed as Pravastatin
[17] = IL1A hCV9546471, 0 Rare Alleles, WOSCOPS Case/Control, F&NF MI, All Possible controls
[18] = IL1A hCV9546471, 1 Rare Allele, WOSCOPS Case/Control, F&NF MI, All Possible controls
[19] = IL1A hCV9546471, WOSCOPS Case/Control, F&NF MI
[20] = IL1A hCV9546471, WOSCOPS, Case/Control, F MI/SD/NF MI
[21] = LRP3 hCV25594815, 0 Rare Alleles, WOSCOPS Case/Control, F&NF MI, All Possible controls
[22] = LRP3 hCV25594815, 0 Rare Alleles, WOSCOPS Case/Control, F&NF MI, Cleaner controls
[23] = LRP3 hCV25594815, 1 Rare Allele, WOSCOPS Case/Control, F&NF MI, All Possible controls
[24] = LRP3 hCV25594815, 1 Rare Allele, WOSCOPS Case/Control, F&NF MI, Cleaner controls
[25] = LRP3 hCV25594815, WOSCOPS Case/Control, F&NF MI
[26] = LRP3 hCV25594815, WOSCOPS, Case/Control, F MI/SD/NF MI
[27] = PON1 hCV2548962, 0 rare alleles, WOSCOPS Case/Control, Fatal & Nonfatal MI, Cleaner controls, White Males
[28] = PON1 hCV2548962, 1 rare allele, WOSCOPS Case/Control, Fatal & Nonfatal MI, Cleaner controls, White Males
[29] = PON1 hCV2548962, 2 rare alleles, WOSCOPS Case/Control, Fatal & Nonfatal MI, Cleaner controls, White Males
[30] = WOSCOPS, FCAR genotype GG, placebo group as reference, conditional logistic regression

CC[C@H](C)C(=O)O[C@H]1C[C@H](O)C=C2C=C[C@H](C)[C@H](CC[C@@H](O)C[C@@H](O)CC(=O)O)[C@H]21 [pravastatin]
Pravastatin vs placebo odds ratio, 1 rare allele (CAPN2 hCV781558, WOSCOPS (W) Case/Control, F&NF MI): 1.02 | 2 Rare Alleles n/total, Pravastatin Patients [1]: 10/41 and 10/39 | Pravastatin vs placebo odds ratio, 0 rare alleles [1]: 0.52 and 0.51 | Pravastatin vs placebo odds ratio, 1 rare allele [1]: 1.07 | Pravastatin vs placebo odds ratio, 2 rare alleles [1]: 0.46 and 0.38 | Pravastatin vs placebo odds ratio, 1 rare allele (CAPN2 hCV781558, WOSCOPS, Case/Control, F MI/SD/NF MI): 1.08 | Pravastatin vs placebo odds ratio, 0 rare alleles [2]: 0.46 and 0.45 | Pravastatin vs placebo odds ratio, 1 rare allele [2]: 1.03 | Pravastatin vs placebo odds ratio, 2 rare alleles [2]: 0.56 and 0.43 | 2 Rare Alleles n/total, Pravastatin Patients [3]: 10/24 and 10/22 | Pravastatin vs placebo odds ratio, 0 rare alleles [3]: 0.67 and 0.65 | Pravastatin vs placebo odds ratio, 1 rare allele [3]: 0.57 and 0.53 | Pravastatin vs placebo odds ratio, 2 rare alleles [3]: 6.96 and 7.20 | Pravastatin vs placebo odds ratio, 0 rare alleles [4]: 0.63 and 0.62 | Pravastatin vs placebo odds ratio, 1 rare allele [4]: 0.50 and 0.46 | Pravastatin vs placebo odds ratio, 2 rare alleles [4]: 8.57 and 9.95 | Pravastatin vs placebo odds ratio, 0 rare alleles [5]: 0.39 | Pravastatin vs placebo odds ratio, 2 rare alleles [5]: 1.04 | Pravastatin vs placebo odds ratio, 1 rare allele [6]: 0.62 and 0.59 | Pravastatin vs placebo odds ratio, 2 rare alleles [6]: 1.09 | 2 Rare Alleles (%), Pravastatin Patients [7]: (25.1%) | 2 Rare Alleles n/total, Pravastatin Patients [7]: 42/167 | Pravastatin vs placebo odds ratio, 0 rare alleles [7]: 0.45 | Pravastatin vs placebo odds ratio, 1 rare allele [7]: 0.68 | Pravastatin vs placebo odds ratio, 2 rare alleles [7]: 1.06 | 2 rare alleles n/total (%), pravastatin patients [8]: (50.0%) | Pravastatin vs placebo odds ratio, 0 rare alleles [8]: 0.63 | Pravastatin vs placebo odds ratio, 1 rare allele [8]: 0.52 | Pravastatin vs placebo odds ratio, 2 rare alleles [8]: 3.14 | 2 Rare Alleles n/total, Pravastatin Patients [9]: 10/26 and 10/23 | Pravastatin vs placebo odds ratio, 0 rare alleles [9]: 0.54 and 0.50 | Pravastatin vs placebo odds ratio, 1 rare allele [9]: 0.99 and 0.98 | Pravastatin vs placebo odds ratio, 2 rare alleles [9]: 1.51 and 1.90 | Pravastatin vs placebo odds ratio, 0 rare alleles [10]: 0.50 and 0.46 | Pravastatin vs placebo odds ratio, 1 rare allele [10]: 0.88 and 0.89 | Pravastatin vs placebo odds ratio, 2 rare alleles [10]: 1.56 and 1.92 | Pravastatin Patients (%) [11]: (23.3%) | Pravastatin Patients n/total [11]: 59/253 | Pravastatin Patients (%) [12]: (25.2%) | Pravastatin Patients n/total [12]: 59/234 | Pravastatin Patients (%) [13]: (18.0%) | Pravastatin Patients n/total [13]: 65/361 | Pravastatin Patients (%) [14]: (19.2%) | Pravastatin Patients n/total [14]: 65/338 | 2 Rare Alleles (%), Pravastatin Patients [15]: (27.6%) | 2 Rare Alleles n/total, Pravastatin Patients [15]: 35/127 and 35/118 | Pravastatin vs placebo odds ratio, 0 rare alleles [15]: 0.84 and 0.80 | Pravastatin vs placebo odds ratio, 1 rare allele [15]: 0.49 and 0.46 | Pravastatin vs placebo odds ratio, 2 rare alleles [15]: 1.08 | Pravastatin vs placebo odds ratio, 2 rare alleles (HRC hCV11506744, WOSCOPS, Case/Control, F MI/SD/NF MI): 1.04 | Pravastatin vs placebo odds ratio, 0 rare alleles [16]: 0.85 and 0.80 | Pravastatin vs placebo odds ratio, 1 rare allele [16]: 0.41 and 0.39 | Pravastatin vs placebo odds ratio, 2 rare alleles [16]: 1.05 | Pravastatin Patients (%) [17]: (20.8%) | Pravastatin Patients n/total [17]: 77/370 | Pravastatin Patients (%) [18]: (24.2%) | Pravastatin Patients n/total [18]: 74/306 | 2 Rare Alleles (%), Pravastatin Patients [19]: (18.3%) | 2 Rare Alleles n/total, Pravastatin Patients [19]: 11/60 | Pravastatin vs placebo odds ratio, 0 rare alleles [19]: 0.52 | Pravastatin vs placebo odds ratio, 1 rare allele [19]: 0.95 | Pravastatin vs placebo odds ratio, 2 rare alleles [19]: 0.95 | Pravastatin vs placebo odds ratio, 0 rare alleles [20]: 0.46 and 0.45 | Pravastatin vs placebo odds ratio, 1 rare allele [20]: 0.91 and 0.85 | Pravastatin vs placebo odds ratio, 2 rare alleles [20]: 0.94 and 0.98 | Pravastatin Patients (%) [21]: (24.1%) | Pravastatin Patients n/total [21]: 133/552 | Pravastatin Patients (%) [22]: (26.1%) | Pravastatin Patients n/total [22]: 133/509 | Pravastatin Patients (%) [23]: (14.5%) | Pravastatin Patients n/total [23]: 25/172 | Pravastatin Patients (%) [24]: (15.2%) | Pravastatin Patients n/total [24]: 25/164 | 2 Rare Alleles (%), Pravastatin Patients [25]: (27.3%) | 2 Rare Alleles n/total, Pravastatin Patients [25]: 3/11 | Pravastatin vs placebo odds ratio, 0 rare alleles [25]: 0.82 and 0.80 | Pravastatin vs placebo odds ratio, 1 rare allele [25]: 0.33 and 0.31 | Pravastatin vs placebo odds ratio, 2 rare alleles [25]: 1.46 and 1.21 | 2 rare alleles n/total (%), pravastatin patients [26]: (27.3%) | Pravastatin vs placebo odds ratio, 0 rare alleles [26]: 0.76 and 0.75 | Pravastatin vs placebo odds ratio, 1 rare allele [26]: 0.29 and 0.26 | Pravastatin vs placebo odds ratio, 2 rare alleles [26]: 2.40 and 1.80 | Pravastatin vs. Placebo Odds Ratio (95% CI), Patients with 0 Rare Alleles [27]: 0.84 (0.60 to 1.16) | n/total (%) cases, Pravastatin Patients, 0 Rare Alleles [27]: 88/344 (25.6%) | Pravastatin vs. Placebo Odds Ratio (95% CI), Patients with 1 Rare Allele [28]: 0.58 (0.40 to 0.84) | n/total (%) cases, Pravastatin Patients, 1 Rare Allele [28]: 65/282 (23.1%) | Pravastatin vs. Placebo Odds Ratio (95% CI), Patients with 2 Rare Alleles [29]: 0.34 (0.14 to 0.82) | n/total (%) cases, Pravastatin Patients, 2 Rare Alleles [29]: 9/53 (17.0%) | RR or OR of adverse coronary event, pravastatin vs placebo (WOSCOPS, CD6 hCV2553030, homozygous for the minor allele): 0.23 | OR (odds ratio) of MI associated with Pravastatin (WOSCOPS, CD6 hCV2553030 genotype Het (TC)): 0.71 | OR (odds ratio) of MI associated with Pravastatin (WOSCOPS, CD6 hCV2553030 genotype Major hom (CC)): 0.66 | OR (odds ratio) of MI associated with Pravastatin (WOSCOPS, CD6 hCV2553030 genotype Minor hom (TT)): 0.23 | OR (odds ratio) of MI associated with Pravastatin (WOSCOPS, CD6 hCV2553030 recessive (TT)): 0.23 | OR (odds ratio) of MI associated with Pravastatin (WOSCOPS; CD6 hCV2553030 recessive TC + CC)ref): 0.68 | OR of MI associated with Pravastatin, first of two OR sets printed [30]: 0.66 | OR of MI associated with Pravastatin, second of two OR sets printed [30]: 0.65

— US9932637B2, “Genetic polymorphisms associated with cardiovascular disorders and drug response, methods of detection and uses thereof” (CELERA CORPORATION, priority 2003, dated 2018)
